Target: Cholinesterase (Homo sapiens, UniProt P06276)
Assay: Inhibition of human […] BuChE using S-butyrylthiocholine iodide as substrate preincubated for 20 mins followed by substrate addition and measured every 30 secs for 1 hr by Ellman's method

Sequence of Cholinesterase (P06276 whole entry): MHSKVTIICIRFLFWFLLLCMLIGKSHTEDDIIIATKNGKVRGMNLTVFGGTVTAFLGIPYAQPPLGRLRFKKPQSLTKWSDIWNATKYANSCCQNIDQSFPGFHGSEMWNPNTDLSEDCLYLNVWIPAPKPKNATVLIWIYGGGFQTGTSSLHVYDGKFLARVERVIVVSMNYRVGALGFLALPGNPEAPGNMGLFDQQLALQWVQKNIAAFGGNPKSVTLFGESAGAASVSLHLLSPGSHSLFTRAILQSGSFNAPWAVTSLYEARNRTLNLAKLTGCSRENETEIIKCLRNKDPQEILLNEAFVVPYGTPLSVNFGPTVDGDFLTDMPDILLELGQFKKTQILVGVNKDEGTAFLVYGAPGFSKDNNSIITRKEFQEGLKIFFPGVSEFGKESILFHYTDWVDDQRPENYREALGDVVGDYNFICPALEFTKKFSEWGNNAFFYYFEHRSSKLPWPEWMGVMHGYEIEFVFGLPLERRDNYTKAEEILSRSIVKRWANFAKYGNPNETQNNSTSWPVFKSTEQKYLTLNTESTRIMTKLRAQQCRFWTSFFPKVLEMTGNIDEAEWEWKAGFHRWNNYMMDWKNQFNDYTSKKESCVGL

Structure (SMILES)	IC50 [µM]
Cc1cccc(O)c1C(=O)C[C@@H]1CC[C@@H]2[C@H]3C(=O)c4c(C)cccc4O[C@H]3CCN12	> 50
Cc1cccc2c1C(=O)[C@@H]1[C@H](CCN3C(=O)CC[C@@H]13)O2	> 50
Cc1cccc(O)c1C(=O)C[C@H]1CC[C@H]2[C@@H]3C(=O)c4c(C)cccc4O[C@@H]3CCN12	> 50
Cc1cccc2c1C(=O)[C@@H]1[C@H]3CCC(=O)N3CC[C@H]1O2	> 50
Cc1cccc2c1C(=O)[C@@H]1[C@H]3CCC[N@@+]3([O-])CC[C@H]1O2 (racemic)	> 50
Cc1cccc(O)c1C(=O)C[C@@H]1CC[C@@H]2[C@H]3C(=O)c4c(C)cccc4O[C@@H]3CCN12 (racemic)	> 50
Cc1cccc2c1C(=O)C1=C3CCCN3CCC1O2 (racemic)	39
Cc1cccc2c1C(=O)[C@H]1[C@H](CCN3C(=O)CC[C@H]13)O2 (racemic)	> 50
Cc1cccc(O)c1C(=O)CC1CCCN1CCCO (racemic)	> 50
Cc1cccc2c1C(=O)CC(CCCNCCCO)O2 (racemic)	> 50
Cc1cccc2c1C(=O)[C@H]1[C@@H](CC[N@@+]3([O-])CCC[C@@H]13)O2 (racemic)	29
Cc1cccc2c1C(=O)[C@@H]1[C@H]3CCC[N@+]3([O-])CC[C@H]1O2 (racemic)	> 50
Cc1cccc2c1C(=O)[C@@H]1[C@H]3CCCN3CC[C@H]1O2 (racemic)	35
Cc1cccc2c1C(=O)[C@H]1[C@H](CCN3CCC[C@H]13)O2 (racemic) [ISOELAEOCARPINE]	> 50
